From patent US6852686B2, “Methods for ameliorating icthyosiform skin diseases” (The United States of America as represented by the …, priority 1999, dated 2005)
“Also recorded” adds a separate entry of the source. Blank lines part the entries; values can stand above or below the molecule they belong to.

How the values were obtained:
TGase 1 = biological target: T1, TGase 1 (Homo sapiens, UniProt P22735); assay: Lipid Z esterification of involucrin by TGase 1 on SLV; format: biochemical; conditions: for involucrin-lipid adduct formation by TGase 1 on SLV membranes: ceramide incorporated in SLV
T1 construct: Recombinant full-length human TGase 1 and TGase 3 enzymes were expressed in Sf9 cells by the BaculoGold system; made in house; host or cells: Sf9 insect cells, BaculoGold baculovirus system, pVL1392 vector
T1 sequence (P22735 1-817): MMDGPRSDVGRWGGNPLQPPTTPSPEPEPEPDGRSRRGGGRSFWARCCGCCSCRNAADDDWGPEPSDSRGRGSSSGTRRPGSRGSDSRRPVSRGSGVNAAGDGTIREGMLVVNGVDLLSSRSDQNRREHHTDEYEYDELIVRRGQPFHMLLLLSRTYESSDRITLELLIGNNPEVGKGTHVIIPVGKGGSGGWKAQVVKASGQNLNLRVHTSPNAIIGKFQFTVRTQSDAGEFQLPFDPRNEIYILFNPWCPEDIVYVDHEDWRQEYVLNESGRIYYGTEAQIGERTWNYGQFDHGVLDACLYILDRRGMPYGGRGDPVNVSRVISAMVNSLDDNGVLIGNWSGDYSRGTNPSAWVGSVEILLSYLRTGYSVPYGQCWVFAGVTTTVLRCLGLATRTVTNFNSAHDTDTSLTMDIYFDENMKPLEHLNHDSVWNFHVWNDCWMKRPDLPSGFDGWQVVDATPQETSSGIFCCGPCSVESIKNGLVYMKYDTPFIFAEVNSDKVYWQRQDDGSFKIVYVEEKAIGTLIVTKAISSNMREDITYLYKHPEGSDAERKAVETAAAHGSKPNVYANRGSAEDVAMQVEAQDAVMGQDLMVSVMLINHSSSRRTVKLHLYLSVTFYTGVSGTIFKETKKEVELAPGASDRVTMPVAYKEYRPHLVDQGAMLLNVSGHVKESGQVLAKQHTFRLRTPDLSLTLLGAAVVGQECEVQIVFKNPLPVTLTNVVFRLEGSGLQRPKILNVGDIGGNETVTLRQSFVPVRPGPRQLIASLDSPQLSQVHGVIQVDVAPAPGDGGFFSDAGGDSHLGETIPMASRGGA
Method: A mixture of 54 mol % dimyristoyl-phosphatidylcholine, 15 mol % dipalmitoyl-phosphatidylserine, 30 mol % cholesterol (all from Sigma, St. Louis, Mo.) and 1 mol % lipid Z was made in chloroform: methanol (9:1). This solution was dried down, taken up in aqueous buffer and dispersed by sonication as before (Nemes et al., J. Biol. Chem., 274: in press (1999)). The SLV suspension was equipped with TGase 1 enzyme by incubation at 37° C. for 15 min prior to adding substrates.
The reactions were stopped by the addition of EDTA to 10 mM.
Following reaction, 0.1 ml 20% SDS in water was added to the samples and the mixture was vortexed. This mixture was precipitated and washed three times with acetone-triethylamine-acetic acid (90:5:5) to remove the SDS and the unbound lipids (Konigsberg, W. H. and L. Henderson, Meth. Enzymol., 91: 254-259 (1983), herein expressly incorporated by reference in its entirety). After further washing with acetone the pellet was dried under vacuum and redissolved in 50 mM Tris-HCl (pH 7.5). Resolubilized protein was digested for 16 h with 2 mol % modified trypsin (Boehringer Mannheim). Peptides were resolved on a 250×2 mm PrimesphereC4 HPLC column (Phenomenex) and separated using a gradient elution from 75% buffer A (0.1% TFA in water) to 75% buffer B (50% 2-propanol in acetonitrile) in 40 min. Under these conditions, lipo-peptides were retarded but free peptides elute with the solvent front (Marekov, L. N. and P. M. Steinert, J. Biol. Chem., 273: 17763-17770 (1998), herein expressly incorporated by reference in its entirety).
Amino acid analysis of hydrolyzed samples (5.7 N HCl at 110° C. for 24 h in vacuo) was used to routinely measure amounts of lipo-peptides. Aliquots of isolated lipo-peptide peaks were attached to a solid support for sequencing (Marekov, L. N. and P. M. Steinert, J. Biol. Chem., 273: 17763-17770 (1998), herein expressly incorporated by reference in its entirety). Saponification of lipo-peptides was done with 1 N KOH in 80% methanol for 2 h at 37° C., after which the solution was acidified, dried and peptides were recovered by HPLC on a C18 column.

[1] = test system: synthetic lipid vesicles (SLV); assay: Membrane association (binding) to synthetic lipid vesicles, SLV pelleted by ultracentrifugation; conditions: for effect on Ca++-induced binding of involucrin to SLVs: added to buffer, SLVs with 15 mol % PS; for effect on involucrin binding to SLV when substituted for PS: SLV containing 8% PS plus 0-20% of the anionic phospholipid; for binding to SLV: SLV with 0 or 15% PS, with or without free Ca++
Method: Mixtures of dipalmitoyl-phosphatidylcholine, cholesterol, dipalmitoyl-phosphatidylserine (PS) and other lipids where indicated (all from Sigma, St. Louis, Mo.) were made in chloroform-methanol (95:5). In all cases, the mixtures contained 30% cholesterol. When the amounts of PS or other individual components were varied, phosphatidylcholine was added to make the mixture to 100%. Mixtures were made in 0.5 ml and contained 10 μmol of total lipids. The solvent was flushed away under a stream of N2, dried further under high vacuum for 4 h and then resuspended by vortexing in 0.5 ml of a buffer containing 50 mM Tris-Cl (pH 8.0), 100 mM NaCl, 3 mM NaN3, 5 mM DTT, and 200 mM sucrose. The mixture was sonicated on ice five times each for 1 min using a Branson 250 sonifier with micro probe tip, and allowed to stand at 23° C. to facilitate assembly of SLV. After 1 h the SLV were diluted with 0.5 ml of the above buffer without sucrose, and 200 μl aliquots were centrifuged at 100,000× g for 30 min in a Beckman Airfuge using the A-10 rotor. The top 175 μl was removed, and the pellet resuspended in another 150 μl of sucrose-free buffer. The final stock concentration was 11 μmol/ml.
In all cases, the buffer contained 50 mM Tris-HCl (pH 8.0), 100 mM NaCl, 1 mM DTT, 3 mM NaN3, and other additives where noted. Some mixtures also contained 1 mM CaCl2 or 2 mM EDTA. After mixing, the samples were centrifuged for 45 min at 100,000× g, and the protein content from 50 μl of supernatant was determined by amino acid analysis after acid hydrolysis. Data were usually not corrected for loss of SLV lipids, as in control experiments, cumulated losses were <4% as assayed by ^14C-phosphatidylcholine tracer, and thus neglected from the calculations.
The Ca^++ concentrations in the μM range were set by buffering free Ca^++ with chelators The desired Ca^++/chelator ratios were calculated by the WinMaxC 1.7 computer program (Bers, et al., Methods in Cell Biology Vol 40: A Practical Guide to the Study of Ca^2+ in Living Cells, Nuccitelli, R., ed., pp. 1-327 (1994), herein expressly incorporated by reference in its entirety), and were made by adding the required amounts of 1 M CaCl2 to 0.2 M stock solutions of the following chelators at pH 8.0. Final chelator concentrations in the samples were 10 mM in all cases. Sodium citrate was the chelator for the 20-500 μM Ca^++ range; sodium nitrilotriacetate for the 1-20 μM Ca^++ range; and sodium 1,2-bis(aminophenoxy)ethane-N,N,N′,N′ tetraacetate for the 0.1-1 μM Ca^++ range.

Molecule: 16-hydroxypalmitoylsphingosine
involucrin-lipid adduct formation by TGase 1 on SLV membranes (TGase 1): no involucrin-adduct formation was observed

inhibition of formation of lipid Z ester (TGase 1; up to 2% 1-hexanol): did not significantly (p=0.05) inhibit
Molecule: CCCCCCO [1-hexanol]

effect on Ca++-induced binding of involucrin to SLVs [1]: completely reversible
Molecule: O=C(O)CN(CCN(CC(=O)O)CC(=O)O)CC(=O)O [EDTA]
inhibition of lipid Z esterification (TGase 1; EDTA present (5 mM elsewhere in the source)): no lipo-peptides were recovered; also recorded: completely inhibited

effect on Ca++-induced binding of involucrin to SLVs [1]: completely reversible
Molecule: O=C(O)CN(CCOCCOCCN(CC(=O)O)CC(=O)O)CC(=O)O [EGTA, reference compound]

inhibition of ester formation of each reactive Gln residue (TGase 1; 1 mM putrescine included in the reaction): 2-3 fold
Molecule: NCCCCN [Putrescine, putrescine]
reduction in ester yields (TGase 1; 20 mM putrescine added at 45 min, compared to 1 h levels): significantly (p<0.01) reduced; also recorded: about a two-fold and time dependent reduction

Molecule: NCCSSCCN [cystamine]
inhibition of lipid Z esterification (TGase 1; 20 mM cystamine): significantly reduced; also recorded: completely inhibited

effect on Ca++-induced binding of involucrin to SLVs [1]: did not support the binding
Molecule: [Mg+2] [magnesium]

Molecule: palmitoylsphingosine
involucrin-lipid adduct formation by TGase 1 on SLV membranes (TGase 1): no involucrin-adduct formation was observed

effect on involucrin binding to SLV when substituted for PS [1]: did not enhance binding
Molecule: phosphatidic acid [reference compound]

effect on involucrin binding to SLV when substituted for PS [1]: did not enhance binding
Molecule: phosphatidyl glycerol [reference compound]

effect on involucrin binding to SLV when substituted for PS [1]: did not enhance binding
Molecule: phosphatidyl inositol [reference compound]

binding to SLV [1]: unable to directly attach to SLV
B1: loricrin: recombinant human CE protein (protein, UniProt P23490 1-312, looked up)
Loricrin: MSYQKKQPTPQPPVDCVKTSGGGGGGGGSGGGGCGFFGGGGSGGGSSGSGCGYSGGGGYSGGGCGGGSSGGGGGGGIGGCGGGSGGSVKYSGGGGSSGGGSGCFSSGGGGSGCFSSGGGGSSGGGSGCFSSGGGGSSGGGSGCFSSGGGGFSGQAVQCQSYGGVSSGGSSGGGSGCFSSGGGGGSVCGYSGGGSGCGGGSSGGSGSGYVSSQQVTQTSCAPQPSYGGGSSGGGGSGGSGCFSSGGGGGSSGCGGGSSGIGSGCIISGGGSVCGGGSSGGGGGGSSVGGSGSGKGVPICHQTQQKQAPTWPSK

B2: TGase 3: recombinant full-length human TGase 3, activated with dispase (protein, UniProt Q08188 1-693, looked up)
chain: MAALGVQSINWQTAFNRQAHHTDKFSSQELILRRGQNFQVLMIMNKGLGSNERLEFIVSTGPYPSESAMTKAVFPLSNGSSGGWSAVLQASNGNTLTISISSPASAPIGRYTMALQIFSQGGISSVKLGTFILLFNPWLNVDSVFMGNHAEREEYVQEDAGIIFVGSTNRIGMIGWNFGQFEEDILSICLSILDRSLNFRRDAATDVASRNDPKYVGRVLSAMINSNDDNGVLAGNWSGTYTGGRDPRSWNGSVEILKNWKKSGFSPVRYGQCWVFAGTLNTALRSLGIPSRVITNFNSAHDTDRNLSVDVYYDPMGNPLDKGSDSVWNFHVWNEGWFVRSDLGPSYGGWQVLDATPQERSQGVFQCGPASVIGVREGDVQLNFDMPFIFAEVNADRITWLYDNTTGKQWKNSVNSHTIGRYISTKAVGSNARMDVTDKYKYPEGSDQERQVFQKALGKLKPNTPFAATSSMGLETEEQEPSIIGKLKVAGMLAVGKEVNLVLLLKNLSRDTKTVTVNMTAWTIIYNGTLVHEVWKDSATMSLDPEEEAEHPIKISYAQYEKYLKSDNMIRITAVCKVPDESEVVVERDIILDNPTLTLEVLNEARVRKPVNVQMLFSNPLDEPVRDCVLMVEGSGLLLGNLKIDVPTLGPKEGSRVRFDILPSRSGTKQLLADFSCNKFPAIKAMLSIDVAE
modifications: full-length activated by dispase cleavage
binding to SLV [1]: unable to associate with an SLV of any composition tested
